≈ marks a conversion by molar mass, not a printed value.
Tests used:
Format in all cases: functional
[1] = system: Staphylococcus aureus; test: Antibacterial activity against Staphylococcus aureus MTCC 96 assessed as growth inhibition after 24 to 48 hr by NCCLS broth microdilution method
[2] = system: Aspergillus niger; test: Antifungal activity against Aspergillus niger MTCC 282 assessed as growth inhibition after 24 to 48 hr by NCCLS broth microdilution method
[3] = system: Candida albicans; test: Antifungal activity against Candida albicans MTCC 227 assessed as growth inhibition after 24 to 48 hr by NCCLS broth microdilution method
[4] = system: Aspergillus clavatus; test: Antifungal activity against Aspergillus clavatus MTCC 1323 assessed as growth inhibition after 24 to 48 hr by NCCLS broth microdilution method
[5] = system: Escherichia coli; test: Antibacterial activity against Escherichia coli MTCC 443 assessed as growth inhibition after 24 to 48 hr by NCCLS broth microdilution method
[6] = system: Pseudomonas aeruginosa; test: Antibacterial activity against Pseudomonas aeruginosa MTCC 1688 assessed as growth inhibition after 24 to 48 hr by NCCLS broth microdilution method
[7] = system: Streptococcus pyogenes; test: Antibacterial activity against Streptococcus pyogenes MTCC 442 assessed as growth inhibition after 24 to 48 hr by NCCLS broth microdilution method

Molecule	MIC [1]	MIC [2]	MIC [3]	MIC [4]	MIC [5]	MIC [6]	MIC [7]
C=CCn1c(=O)c(C2C(C#N)=C(N)OC3=C2C(=O)c2ccccc2C3=O)cc2cc(C)ccc21 (stereo not drawn)	200 µg/mL (≈ 445 µM)	500 µg/mL (≈ 1110 µM)	1000 µg/mL (≈ 2220 µM)	1000 µg/mL (≈ 2220 µM)	250 µg/mL (≈ 556 µM)	500 µg/mL (≈ 1110 µM)	100 µg/mL (≈ 222 µM)
C=CCn1c(=O)c(C2C(C#N)=C(N)OC3=C2C(=O)c2ccccc2C3=O)cc2cc(Cl)ccc21 (stereo not drawn)	500 µg/mL (≈ 1060 µM)	1000 µg/mL (≈ 2130 µM)	500 µg/mL (≈ 1060 µM)	100 µg/mL (≈ 213 µM)	200 µg/mL (≈ 426 µM)	500 µg/mL (≈ 1060 µM)	100 µg/mL (≈ 213 µM)
C=CCn1c(=O)c(C2C3=C(CCCC3=O)OC3=C2C(=O)c2ccccc2C3=O)cc2cc(C)ccc21 (stereo not drawn)	250 µg/mL (≈ 524 µM)	1000 µg/mL (≈ 2090 µM)	500 µg/mL (≈ 1050 µM)	1000 µg/mL (≈ 2090 µM)	500 µg/mL (≈ 1050 µM)	250 µg/mL (≈ 524 µM)	250 µg/mL (≈ 524 µM)
O=C(O)c1cn(C2CC2)c2cc(N3CCNCC3)c(F)cc2c1=O [CIPROFLOXACIN]	50 µg/mL (≈ 151 µM)	–	–	–	25 µg/mL (≈ 75.4 µM)	–	50 µg/mL (≈ 151 µM)
C=CCn1c(=O)c(C2C(C(=O)OC(C)C)=C(N)OC3=C2C(=O)c2ccccc2C3=O)cc2cc(Cl)ccc21 (stereo not drawn)	500 µg/mL (≈ 942 µM)	100 µg/mL (≈ 188 µM)	500 µg/mL (≈ 942 µM)	250 µg/mL (≈ 471 µM)	200 µg/mL (≈ 377 µM)	100 µg/mL (≈ 188 µM)	500 µg/mL (≈ 942 µM)
COC1=CC(=O)C[C@@H](C)[C@]12Oc1c(Cl)c(OC)cc(OC)c1C2=O [GRISEOFULVIN]	–	100 µg/mL (≈ 283 µM)	500 µg/mL (≈ 1420 µM)	100 µg/mL (≈ 283 µM)	–	–	–
C=CCn1c(=O)c(C2C(C#N)=C(N)OC3=C2C(=O)c2ccccc2C3=O)cc2cc(OC)ccc21 (stereo not drawn)	250 µg/mL (≈ 537 µM)	> 1000 µg/mL	1000 µg/mL (≈ 2150 µM)	1000 µg/mL (≈ 2150 µM)	125 µg/mL (≈ 269 µM)	200 µg/mL (≈ 430 µM)	200 µg/mL (≈ 430 µM)
C=CCn1c(=O)c(C2C(C#N)=C(N)OC3=C2C(=O)c2ccccc2C3=O)cc2ccccc21 (stereo not drawn)	62.5 µg/mL (≈ 144 µM)	500 µg/mL (≈ 1150 µM)	250 µg/mL (≈ 574 µM)	> 1000 µg/mL	100 µg/mL (≈ 230 µM)	250 µg/mL (≈ 574 µM)	250 µg/mL (≈ 574 µM)
CC1(C)S[C@@H]2[C@H](NC(=O)[C@H](N)c3ccccc3)C(=O)N2[C@H]1C(=O)O [AMPICILLIN]	250 µg/mL (≈ 715 µM)	–	–	–	100 µg/mL (≈ 286 µM)	–	100 µg/mL (≈ 286 µM)
C=CCn1c(=O)c(C2C3=C(CCCC3=O)OC3=C2C(=O)c2ccccc2C3=O)cc2cc(Cl)ccc21 (stereo not drawn)	500 µg/mL (≈ 1000 µM)	1000 µg/mL (≈ 2010 µM)	500 µg/mL (≈ 1000 µM)	100 µg/mL (≈ 201 µM)	250 µg/mL (≈ 502 µM)	62.5 µg/mL (≈ 126 µM)	50 µg/mL (≈ 100 µM)
C=CCn1c(=O)c(C2C3=C(CC(C)(C)CC3=O)OC3=C2C(=O)c2ccccc2C3=O)cc2cc(C)ccc21 (stereo not drawn)	500 µg/mL (≈ 989 µM)	125 µg/mL (≈ 247 µM)	> 1000 µg/mL	1000 µg/mL (≈ 1980 µM)	62.5 µg/mL (≈ 124 µM)	500 µg/mL (≈ 989 µM)	250 µg/mL (≈ 494 µM)
C=CCn1c(=O)c(C2C3=C(CCCC3=O)OC3=C2C(=O)c2ccccc2C3=O)cc2cc(OC)ccc21 (stereo not drawn)	500 µg/mL (≈ 1010 µM)	100 µg/mL (≈ 203 µM)	1000 µg/mL (≈ 2030 µM)	1000 µg/mL (≈ 2030 µM)	250 µg/mL (≈ 507 µM)	20 µg/mL (≈ 40.5 µM)	500 µg/mL (≈ 1010 µM)
C=CCn1c(=O)c(C2C(C(=O)OC(C)C)=C(N)OC3=C2C(=O)c2ccccc2C3=O)cc2cc(C)ccc21 (stereo not drawn)	125 µg/mL (≈ 245 µM)	1000 µg/mL (≈ 1960 µM)	> 1000 µg/mL	500 µg/mL (≈ 979 µM)	25 µg/mL (≈ 49 µM)	250 µg/mL (≈ 490 µM)	500 µg/mL (≈ 979 µM)
C=CCn1c(=O)c(C2C(C(=O)OC(C)C)=C(N)OC3=C2C(=O)c2ccccc2C3=O)cc2cc(OC)ccc21 (stereo not drawn)	100 µg/mL (≈ 190 µM)	500 µg/mL (≈ 950 µM)	1000 µg/mL (≈ 1900 µM)	500 µg/mL (≈ 950 µM)	250 µg/mL (≈ 475 µM)	200 µg/mL (≈ 380 µM)	200 µg/mL (≈ 380 µM)
NYSTATIN	–	100 µg/mL	100 µg/mL	100 µg/mL	–	–	–
C=CCn1c(=O)c(C2C3=C(CCCC3=O)OC3=C2C(=O)c2ccccc2C3=O)cc2ccccc21 (stereo not drawn)	200 µg/mL (≈ 432 µM)	500 µg/mL (≈ 1080 µM)	250 µg/mL (≈ 539 µM)	500 µg/mL (≈ 1080 µM)	200 µg/mL (≈ 432 µM)	250 µg/mL (≈ 539 µM)	125 µg/mL (≈ 270 µM)
C=CCn1c(=O)c(C2C3=C(CC(C)(C)CC3=O)OC3=C2C(=O)c2ccccc2C3=O)cc2ccccc21 (stereo not drawn)	250 µg/mL (≈ 509 µM)	> 1000 µg/mL	> 1000 µg/mL	> 1000 µg/mL	100 µg/mL (≈ 203 µM)	100 µg/mL (≈ 203 µM)	200 µg/mL (≈ 407 µM)
C=CCn1c(=O)c(C2C3=C(CC(C)(C)CC3=O)OC3=C2C(=O)c2ccccc2C3=O)cc2cc(Cl)ccc21 (stereo not drawn)	200 µg/mL (≈ 380 µM)	1000 µg/mL (≈ 1900 µM)	> 1000 µg/mL	100 µg/mL (≈ 190 µM)	200 µg/mL (≈ 380 µM)	250 µg/mL (≈ 475 µM)	500 µg/mL (≈ 951 µM)
C=CCn1c(=O)c(C2C(C(=O)OC(C)C)=C(N)OC3=C2C(=O)c2ccccc2C3=O)cc2ccccc21 (stereo not drawn)	500 µg/mL (≈ 1010 µM)	250 µg/mL (≈ 504 µM)	500 µg/mL (≈ 1010 µM)	> 1000 µg/mL	200 µg/mL (≈ 403 µM)	50 µg/mL (≈ 101 µM)	250 µg/mL (≈ 504 µM)
O=C(N[C@H](CO)[C@H](O)c1ccc([N+](=O)[O-])cc1)C(Cl)Cl [CHLORAMPHENICOL]	50 µg/mL (≈ 155 µM)	–	–	–	50 µg/mL (≈ 155 µM)	50 µg/mL (≈ 155 µM)	50 µg/mL (≈ 155 µM)
C=CCn1c(=O)c(C2C3=C(CC(C)(C)CC3=O)OC3=C2C(=O)c2ccccc2C3=O)cc2cc(OC)ccc21 (stereo not drawn)	500 µg/mL (≈ 959 µM)	500 µg/mL (≈ 959 µM)	1000 µg/mL (≈ 1920 µM)	500 µg/mL (≈ 959 µM)	125 µg/mL (≈ 240 µM)	100 µg/mL (≈ 192 µM)	250 µg/mL (≈ 479 µM)

— ChEMBL document CHEMBL3044821, “Microwave-induced CAN promoted atom-economic synthesis of 1H-benzo[b]xanthene and 4H-benzo[g]chromene derivatives of N-allyl quinolone and their antimicrobial activity” (2013)
